System: pressor response to exogenous angiotensin II
Assay: Inhibition of Pressor Response to Angiotensin II in Conscious Rats
Type: in vivo
Settings: Rattus norvegicus, mean arterial pressure, 250 mg/kg angiotensin II i.v. as printed, compounds given intravenously or orally at 3 to 300 mg/kg (route not given), read-out: IC50 (dose of compound needed to produce 50% inhibition of the control pressor response to angiotensin II)
Method: Angiotensin II antagonist activity of the compounds of Formula (I) is assessed by in vitro and in vivo methods. In vitro antagonist activity is determined by the ability of the compounds to compete with ^125 I-angiotensin II for binding to vascular angiotensin II receptors and by their ability to antagonize the contractile response to angiotensin II in the isolated rabbit aorta. In vivo activity is evaluated by the efficacy of the compounds to inhibit- the pressor response to exogenous angiotensin II in conscious rats and to lower blood pressure in a rat model of renin dependent hypertension.
Rats are prepared with indwelling femoral arterial and venous catheters and a stomach tube (Gellai et al., Kidney Int. 15:419, 1979). Two to three days following surgery the rats are placed in a restrainer and blood pressure is continuously monitored from the arterial catheter with a pressure transducer and recorded on a polygraph. The change in mean arterial pressure in response to intravenous injections of […] angiotensin II is compared at various time points prior to and following the administration of the compounds intravenously or orally at doses of 3 to 300 mg/kg. The dose of compound needed to produce 50% inhibition of the control response to angiotensin II (IC50) is used to estimate the potency of the compounds.

SMILES: CCCCc1ncc(CC(=O)N[C@@H](Cc2ccccc2)C(=O)O)n1Cc1ccccc1Cl [Example 14, N-[{2-n-Butyl-1-(2-chlorophenyl)methyl-1H-imidazol-5-yl}methylcarbonyl]-L-phenylalanine]
- ED50: 16 mg/kg
